# According to paper PMC11718441, “Bis-3-chloropiperidines: a novel motif for anthelmintic drug design” (RSC Advances, 2025):
# “Also recorded” adds a separate entry of the source. Where two headings read alike, the source gives them in different places.
# Assays:
# in vitro = details: dog
# [1] = tested on: Septoria tritici MUCL45408; test: Minimum inhibitory concentration (MIC), S. tritici (ATP quantification); assay type: cell-based; details: Zymoseptoria tritici, MUCL45408, 96 h, read-out: MIC St
# Description: (§1) The minimum inhibitory concentration (MIC) of the synthesized compounds was initially determined against three microbial indicator strains (Escherichia coli ATCC35218, […] ATCC33592, Septoria tritici MUCL45408). […]
# (§2) 2. Microbial and parasitological studies
# (§3) The minimum inhibitory concentration (MIC) of the synthesized compounds was determined against three microbial indicator strains (E. coli ATCC35218, S. aureus ATCC33592 and S. tritici MUCL45408) as previously described.1,2 All samples were dissolved in DMSO and tested in triplicate. Briefly, a pre-culture of E. coli and S. aureus was prepared by incubating the strains in cation adjusted Mueller Hinton 2 broth (Becton Dickinson, Sparks, NV, USA) at 37°C and 180 rpm overnight. The cell density of adjusted to 5 × 10^5 cells/mL before assays were incubated at 37 °C, 180 rpm and 85% rH. Three distinct dilution series of standard antibiotics (gentamicin, rifampicin, and tetracycline) were used as positive controls on each assay plate. Inoculated medium without test compound or positive control was used as negative control.
# Medium background was averaged from 5 replicates. The turbidity of each well was measured with a microplate spectrophotometer at 600 nm (LUMIstar® Omega, BMG Labtech) and growth inhibition was calculated relative to the absorption of the controls. For S. tritici MUCL45408 inoculated at a density of 1 × 10^5 cells/mL in potato […]
# dextrose medium. Septoria assay plates were incubated for 4 days at 25 °C, 180 rpm and 85% rH. Tebuconazole, amphotericin B, and nystatin were used as positive controls. Cell viability was evaluated via ATP quantification (BacTiter-Glo™, Promega GmbH, Walldorf, Germany) according to the manufacturer’s instructions. […]
# C. elegans DC19 = test: whole plant or invertebrate; assay type: cell-based, Caenorhabditis elegans; details: Caenorhabditis elegans, 48 h, read-out: MMIC DC19
# Description: (§4) The cuticle of C. elegans strain DC19 is known to be more permeable for small molecules compared to the wildtype N2.[30] DC19 is thereby considered an informative drug-sensitive test organism. In our assays, we determined the minimum mobility inhibitory concentration (MMIC) as a proxy for anthelmintic activity. […] In contrast, MMICs of some small molecule anthelmintics such as albendazole, mebendazole or PF-1022A were lower for DC19 (Fig. S1 ^†). […]
# (§5) 2.2 In vitro tests against Caenorhabditis Elegans
# (§6) The minimal motility inhibitory concentration (MMIC) of compounds 1-22 against C. elegans was determined as described before.3 Both strains, C. elegans N2 and DC19 were treated identically. Briefly, pre-cultures of C.elegans were kept on NGM agar plates infused with auxotrophic E.coli OP50 as food source.4 After 4 days the plates contained sufficient gravid worms, respectively. Worms were washed from the plates with M9 buffer using wide bore pipette tips. Egg preparation was carried out by treating the harvested worms with an alkaline hypochlorite solution (5 M NaOH + 5 % NaOCl 1:2) in polypropylene tubes. Larvae and adult […]
# (§7) We carried out 3 washing steps (M9 buffer) to remove carry-over hypochlorite solution. Subsequently, the eggs were incubated overnight in NGM broth on a rotator to yield synchronized hatched L1/L2 larvae. The larvae solution was adjusted to 100 worms/mL and supplemented with cholesterol (5 µg/mL), carbenicillin (25 µg/mL) and E.coli OP50 (0.5%). This assay solution was distributed into 96 well plates and incubated with a dilution series of compounds 1-22 (64-0.5 µg/mL). An additional eight-point dilution series of ivermecin (40 – 0.3 ng/mL) was used as positive control on each assay plate. Solvent background was controlled by supplementation of pure DMSO without any compound. Assays were incubated for 2 days at room temperature. Finally, a cell imaging multimode reader (Cytation™ 5) was used to record short videos (1.5 seconds) of each individual test well. The videos were used to evaluate the worm motility.
# C. elegans N2 = test: whole plant or invertebrate; assay type: cell-based, Caenorhabditis elegans; details: Caenorhabditis elegans, 48 h, read-out: MMIC N2
# Description: as §4, §5, §6, §7
# [2] = tested on: C. elegans strains N2 and DC19; test: MMIC against C. elegans, strains N2 and DC19 reported together or strain not stated; assay type: cell-based; details: Caenorhabditis elegans, 48 h
# Description: as §4, §5, §6, §7
# Schistosoma mansoni = test: In vitro tests against Schistosoma mansoni (vitality parameters of adult worm pairs); assay type: cell-based; details: for Effect on S. mansoni: 10 and 20 μM, up to 7 days, Det: detachment of suckers, Mot: motility reduction, Sep: pair separation; for activity against S. mansoni (100% effect strength in one parameter within 7 days = active): 10 or 20 μM; for lethal effects: after seven days; for sucker detachment: after three days
# Description: Subsequently, we tested whether compounds with nematocidal activity display a broader activity also against parasitic flatworms. To this end, in vitro tests against the blood fluke S. mansoni were conducted (Fig. 4). The worms were incubated in presence of 10 and 20 μM of compounds 1–22 and phenotypic vitality parameters (separation of worm pairs, detachment of suckers from the bottom of the well and weakening of body movements) were assessed as previously described.[31] Compounds reaching 100% effect strength in one of the parameters within 7 days were considered active. Reduction of motility is considered most relevant for antischistosomal drug candidates.[32] In addition, loss of sucker activity would make parasites drifting off from their host habitat (mesenteric veins) and with pair separation, the production of pathology-causing eggs eventually ceases.[33] […] For some molecular targets e.g. glutamate and GABA chloride channels (ivermecin, abamectin) and β-tubulin (albendazole, mebendazole) the C. elegans assays results were transferable to Schistosoma, while for others e.g. acetylcholin mimetic (levamisole) the C. elegans MMIC was not predicative (Fig. S1 ^†).
# 2.2 Parasitological studies
# Animal experiments were performed in accordance with Directive 2010/63/EU on the protection of animals used for scientific purposes and the German Animal Welfare Act. The experiments were approved by the Regional Council (Regierungspraesidium) Giessen (V54 – […]
# A Liberian strain of S. mansoni was maintained in the freshwater snail Biomphalaria glabrata as intermediate host and Syrian hamsters (Mesocricetus auratus) as final host (Janvier Labs, France).5,6 Hamsters were infected at 8 weeks of age with 1,750 cercariae by using the paddling method.7 Adult worms were collected at 46 days p.i. by hepatoportal perfusion and cultured in M199 medium (Sigma-Aldrich, Germany) supplemented with 10% Newborn Calf Serum (NCS, Sigma-Aldrich), 1% 1 M HEPES (ThermoFisher Scientific, USA) and 1% ABAM solution (10,000 units/ml penicillin, 10 mg/ml streptomycin and […] amphotericin B; Sigma-Aldrich, Germany) at 37 °C, 5% CO2 and humidified atmosphere.
# 2.2.3. In vitro tests against Schistosoma mansoni
# Test compounds were added at 10 µM or 20 µM in supplemented M199 medium to schistosomes (5 worm pairs per replicate) followed by a 7 d in vitro culture. Worms receiving the solvent DMSO at equal dilution served as negative control. The following vitality parameters were assessed every 24 h by bright field microscopy using a Leica DM IL inverted microscope and x2.5 objective lens: separation of worm pairs into male and female worms; detachment of suckers from the bottom; and weakening of body movements. Worm motility was scored as described previously, 8 with the scores 3 (normal motility), 2 (reduced motility), 1 (minimal and sporadic movements), 0 (no movements within 20 sec; dead worms). An average score of all worms per well was calculated to obtain a motility score. An average motility score of 0, separation of all pairs or detachment of all worms per well was considered
# MDCK II cells = test: In vitro cytotoxicity, CellTiter-Glo, MDCK II cells; details: 100 μM; for MDCKII cytotoxicity: 48 h, cell viability less than 80% relative to DMSO control = cytotoxic
# [3] = tested on: Escherichia coli ATCC35218; test: microbe, parasite or virus in culture; assay type: cell-based; details: ATCC35218, read-out: MIC Ec
# Description: as §1, §2
# as §3, with “and tetracycline) were used as positive controls on each assay plate. Inoculated medium without test compound or positive control was used as negative control.” left out
# (§8) medium without test compound or positive control was used as negative control.
# (§9) Medium background was averaged from 5 replicates. The turbidity of each well was […]
# S. aureus ATCC33592 = test: microbe, parasite or virus in culture; assay type: cell-based; details: Staphylococcus aureus, ATCC33592, read-out: MIC Sa
# Description: as §1, §2
# as §3, with “and tetracycline) were used as positive controls on each assay plate. Inoculated medium without test compound or positive control was used as negative control.” left out
# as §8, §9
# [4] = C. elegans, read-out: MMIC N2 and DC19
SMILES,CC50 (in vitro),MIC [1],minimal effective concentration (C. elegans DC19),minimal effective concentration (C. elegans N2),"minimal effective concentration [2, 4]",sucker detachment of Schistosoma worm pairs (Schistosoma mansoni; 10 μM),Effect on S. mansoni (Schistosoma mansoni),activity against S. mansoni (100% effect strength in one parameter within 7 days = active) (Schistosoma mansoni),"motility score (Schistosoma mansoni; score 3 normal motility to 0 dead, paragraph on 20 μM)",MDCKII cytotoxicity (MDCK II cells),MIC [3],MIC (S. aureus ATCC33592),"detachment of suckers and pair separation (Schistosoma mansoni; 20 μM, after 7 days incubation)",cytotoxicity against MDCK II (in words) (MDCK II cells),lethal effects (Schistosoma mansoni; 20 μM),sucker detachment (Schistosoma mansoni; 20 μM),"minimal effective concentration ([2]; read-out: MMIC N2 and DC19, C. elegans)","separation of worm pairs (Schistosoma mansoni; 10 μM, after 3 days)"
CC1(C)CC(Cl)CN(Cc2cc(CN3CC(Cl)CC(C)(C)C3)cc([N+](=O)[O-])c2)C1 (stereo not shown) [Compound 5],> 1000 µM,> 64 mg/L,16 µg/mL,16 µg/mL,< 20 µg/mL,full sucker detachment,"Det, Sep, Lethal",showed an effect on S. mansoni; also recorded: active at 10 μM,1–1.2,− (“−” (not toxic)),> 64 mg/L,> 64 mg/L,,,,,,
COC(=O)[C@H](CCCCN1CC(Cl)CC(C)(C)C1)N1CC(Cl)CC(C)(C)C1 (stereo partly shown) [Compound 11],123 µM,> 64 mg/L,> 64 µg/mL,> 64 µg/mL,,,"Det, Sep",Schistosoma-specific; also recorded: active at 20 μM,,− (“−” (not toxic)),> 64 mg/L,> 64 mg/L,detachment of suckers and pair separation,,,,,
CC1(C)CC(Cl)CN(Cc2cc(CN3CC(Cl)CC(C)(C)C3)cc(CN3CC(Cl)CC(C)(C)C3)c2)C1 (stereo not shown) [Compound 21],> 1000 µM,> 64 mg/L,,,< 20 µg/mL,,,did not affect Schistosoma,,− (“−” (not toxic)),> 64 mg/L,> 64 mg/L,,did not exhibit cytotoxic properties,,,,
COc1cc(CN2CC(Cl)CC(C)(C)C2)cc(CN2CC(Cl)CC(C)(C)C2)c1 (stereo not shown) [Compound 2],83 µM,64 mg/L,,,< 20 µg/mL,,"Det, Sep, Mot, Lethal",showed an effect on S. mansoni; also recorded: active at 20 μM,,− (“−” (not toxic)),> 64 mg/L,> 64 mg/L,,did not exhibit cytotoxic properties,lethal effect,sucker detachment already after three days,,
COC(=O)c1cc(CN2CC(Cl)CC(C)(C)C2)cc(CN2CC(Cl)CC(C)(C)C2)c1 (stereo not shown) [Compound 4],205 µM,> 64 mg/L,16 µg/mL,16 µg/mL,< 20 µg/mL,,,no activity,,− (“−” (not toxic)),> 64 mg/L,> 64 mg/L,,,,,,
COc1ccc(CN2CC(Cl)CC(C)(C)C2)c(CN2CC(Cl)CC(C)(C)C2)c1 (stereo not shown) [Compound 9],70 µM,> 64 mg/L,64 µg/mL,> 64 µg/mL,,,"Det, Sep, Lethal",Schistosoma-specific; also recorded: active at 20 μM,,+ (“+” (toxic)),> 64 mg/L,> 64 mg/L,,cytotoxic,lethal effects,sucker detachment already after three days,64 µg/mL,separation of all worm pairs
